Laboratory results: patent US20070265212A1, “Drug Transport and Delivery System” (LUZERN ACQUISITION CORP., C/O STRELA DEVELOPMENT, priority 2002, published 2007)

Legend:
red blood cells = test: Metabolite formation in the presence of red blood cells (HPLC, mass spectrometry); type: in vitro ADME; conditions: identified by HPLC and mass spectrometry
Procedure: (§1) These metabolites were identified by HPLC and mass spectrometry to be m-L-Sarcolysin, prolyl-m-L-sarcolysin, fluoro-phenylalanine and prolyl-m-sarcolysyl-p-fluoro-phenylalanin.
(§2) According to hitherto is available results this metabolite is most probably ADM linked to one Phe moiety. This was done with 1 ml of blood containing 20 μg/ml of the ADM derivative as well as 5×10^9 RBC compared to only 5×10^6 melanoma cells.

human melanoma cells = test: Metabolite formation in the presence of human melanoma cells (HPLC, mass spectrometry); type: in vitro ADME; conditions: identified by HPLC and mass spectrometry
Procedure: as §1, §2

## Prolyl-m-sarcolysyl-p-fluoro-phenylalanin [PSF]
Red blood cells
  metabolites in presence of red blood cells: one major metabolite, namely m-L-sarcolysin
Human melanoma cells
  metabolites in the presence of cancer cells: 4
